Test results: ChEMBL document CHEMBL1201862, “PubChem BioAssay data set” (2004)
Active and inactive are the calls of the source. For most assays here, no stated cut-off is given here; in the data, actives have a measured IC50 and inactives only a lower limit.

What was measured:
[1] = biological target: T1, Sentrin-specific protease 6 (Homo sapiens, UniProt Q9GZR1); type: functional;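 further: Luminescence-based dose-response confirmatory assay of SENP6 inhibition, following up an ultra-high-throughput screen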
T1 sequence (Q9GZR1 whole entry): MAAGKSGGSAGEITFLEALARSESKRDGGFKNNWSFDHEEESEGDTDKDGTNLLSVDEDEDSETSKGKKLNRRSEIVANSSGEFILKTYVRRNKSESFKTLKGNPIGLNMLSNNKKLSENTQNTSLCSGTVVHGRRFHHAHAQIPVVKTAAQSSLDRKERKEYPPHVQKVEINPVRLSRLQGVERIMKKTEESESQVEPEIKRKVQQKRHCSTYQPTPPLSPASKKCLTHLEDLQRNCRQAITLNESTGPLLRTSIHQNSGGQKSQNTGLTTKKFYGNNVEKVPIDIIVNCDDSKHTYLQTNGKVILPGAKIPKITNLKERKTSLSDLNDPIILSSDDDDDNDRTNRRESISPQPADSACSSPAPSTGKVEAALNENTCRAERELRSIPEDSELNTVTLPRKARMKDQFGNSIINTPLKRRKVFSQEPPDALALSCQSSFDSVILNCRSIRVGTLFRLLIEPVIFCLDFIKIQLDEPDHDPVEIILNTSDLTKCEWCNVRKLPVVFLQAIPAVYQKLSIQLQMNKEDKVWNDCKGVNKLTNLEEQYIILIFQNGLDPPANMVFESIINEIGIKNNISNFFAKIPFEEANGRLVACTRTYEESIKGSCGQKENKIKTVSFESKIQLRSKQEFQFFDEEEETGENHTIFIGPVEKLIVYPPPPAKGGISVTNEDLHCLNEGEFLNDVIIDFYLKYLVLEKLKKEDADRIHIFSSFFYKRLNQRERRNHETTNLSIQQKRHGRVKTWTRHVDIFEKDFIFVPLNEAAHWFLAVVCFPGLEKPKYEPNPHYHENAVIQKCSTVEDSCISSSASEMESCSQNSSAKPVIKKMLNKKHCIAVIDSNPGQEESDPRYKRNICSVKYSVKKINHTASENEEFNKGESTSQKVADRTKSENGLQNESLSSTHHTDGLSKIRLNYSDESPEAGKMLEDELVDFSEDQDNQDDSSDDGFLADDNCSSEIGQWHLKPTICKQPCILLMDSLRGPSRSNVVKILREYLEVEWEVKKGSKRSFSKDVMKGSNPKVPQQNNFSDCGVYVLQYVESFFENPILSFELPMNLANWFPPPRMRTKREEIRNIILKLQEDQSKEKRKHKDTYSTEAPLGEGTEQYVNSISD

[2] = biological target: T2, Rac GTPase-activating protein 1 (Homo sapiens, UniProt Q9H0H5); experiment: blockers of MgcRacGAP-driven Rac1 GTP hydrolysis – biochemical, ADP Hunter fluorescence, primary and confirmatory, confirmation (AID 624330); type: functional
T2 sequence (Q9H0H5 whole entry): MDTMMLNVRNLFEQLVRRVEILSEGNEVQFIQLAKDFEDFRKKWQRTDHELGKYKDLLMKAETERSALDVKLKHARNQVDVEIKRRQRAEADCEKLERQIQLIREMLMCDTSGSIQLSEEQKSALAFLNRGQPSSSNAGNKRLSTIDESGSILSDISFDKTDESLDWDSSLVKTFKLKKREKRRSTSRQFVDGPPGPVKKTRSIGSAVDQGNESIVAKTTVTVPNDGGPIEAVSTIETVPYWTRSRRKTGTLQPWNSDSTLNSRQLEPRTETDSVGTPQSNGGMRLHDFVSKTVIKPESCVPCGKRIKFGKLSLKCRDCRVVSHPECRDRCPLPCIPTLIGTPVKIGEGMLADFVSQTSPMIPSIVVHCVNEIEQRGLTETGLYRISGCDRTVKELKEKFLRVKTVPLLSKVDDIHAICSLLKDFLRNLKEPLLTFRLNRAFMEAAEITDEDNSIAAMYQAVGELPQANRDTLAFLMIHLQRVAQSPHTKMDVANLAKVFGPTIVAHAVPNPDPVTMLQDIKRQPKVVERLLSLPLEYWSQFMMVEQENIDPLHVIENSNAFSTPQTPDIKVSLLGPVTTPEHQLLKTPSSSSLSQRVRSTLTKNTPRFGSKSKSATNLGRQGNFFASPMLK

Caspase-3 = biological target: T3, Caspase-3 (Homo sapiens, UniProt P42574); type: functional;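 further: Dose-response selectivity test against caspase-3 for candidate inhibitors of sentrin-specific proteases (SENPs)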
T3 sequence (P42574 whole entry): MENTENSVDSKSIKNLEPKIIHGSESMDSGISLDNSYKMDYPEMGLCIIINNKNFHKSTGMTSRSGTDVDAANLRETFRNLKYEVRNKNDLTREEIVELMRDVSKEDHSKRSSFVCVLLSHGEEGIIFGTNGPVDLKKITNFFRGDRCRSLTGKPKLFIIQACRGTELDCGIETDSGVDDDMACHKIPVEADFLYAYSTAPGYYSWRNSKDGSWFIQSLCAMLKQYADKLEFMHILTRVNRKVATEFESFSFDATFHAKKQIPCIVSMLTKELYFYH

[3] = biological target: T4, Sentrin-specific protease 8 (Homo sapiens, UniProt Q96LD8); type: functional;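 further: luminescence read-out of SENP8 inhibition, dose-response confirmation following an ultra-high-throughput screen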
T4 sequence (Q96LD8 whole entry): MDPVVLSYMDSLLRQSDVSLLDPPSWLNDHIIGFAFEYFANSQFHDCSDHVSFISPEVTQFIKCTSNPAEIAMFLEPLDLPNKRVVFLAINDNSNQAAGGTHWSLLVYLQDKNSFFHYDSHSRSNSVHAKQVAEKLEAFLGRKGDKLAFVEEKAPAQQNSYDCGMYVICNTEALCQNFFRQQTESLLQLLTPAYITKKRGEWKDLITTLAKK

[4] = biological target: Heat shock protein HSP 90-alpha (Homo sapiens, UniProt P07900); type: functional, organism-based

SMILES	IC50 [1]	IC50 [2]	IC50 (Caspase-3)	IC50 [3]	AC50 [4]
Cc1ccc2[nH]c(/C(C#N)=C/c3ccc(O)c(O)c3)nc2c1	27.9 µM (active)	22.3 µM (active)	28.1 µM (active)	24.3 µM (active)	
O=C1NC(=S)S/C1=C\C=C\c1ccc([N+](=O)[O-])o1		37.7 µM (active)			1.73 µM (active)
CN(C)S(=O)(=O)Oc1cccc(C(=O)Nc2ccc(Cl)c(Cl)c2)c1	13.6 µM (active)		52.2 µM (active)	19.6 µM (active)	
COC(=O)C1CN(C#N)N(c2ccc(Cl)cc2)C12c1ccccc1-c1ccccc12 (stereo not given)					2.75 µM (active)
